Measured values as given in patent US8906846B2, “Method of treating inflammatory bowel disease by administering a clip-inducing agent” (The Texas A&M University System, priority 2011, dated 2014).

Columns and labels:
CRL-5822 cells [1] = test: Effects of CpG, MKR.4 and anti-MHC class II antibody on CRL-5822 cell viability counts (Example 2); type: cell-based, human; details: CpG 1 ug/mL at start, MKR.4 2.5 ug/mL 24 h later for 2 h, Anti MHC Class II 5 ug/mL, viability counts 24 h after antibody
Experimental: CRL-5822 were Prepared as Follows: • Removed the media from a flask of CRL-5822 using a sterile glass pipet and vacuum • Added 1.5 mL of accutase to the flask and placed in incubator for 20 minutes • Washed with 3 mL of PBS • Transferred all to a sterile 15 mL conical tube • Centrifuged for 5′@1000 rpm • Removed supernatant with sterile glass pipet and vacuum • Resuspended in 3 mL of PBS • Performed a hemacytometer count indicating: 1.14*10^6 cells total of CRL-5822 cells • 1.14*10^6/8 wells+2 wells for culture maintenance=10 wells • 1.14*10^6/10 wells=[…] cells per well • Centrifuged the 3 mL of cell suspension for 5′ at 1000 rpm • Resuspended pellet in 10 mL of 10% FBS RPMI • 1 mL of this was added to 2 wells in a 12-well plate added 1 mL of fresh 10% FBS RPMI to each well to bring the total volume up to 2 mL.
(§1) 8 wells were set up for the experiment for each cell type (CRL-5822 and C57BL/6) with no treatment, with CpG, MKR.4 peptide, with MKR.4 peptide+CpG and with or without addition of purified Anti Class-II (HLA-DR,DP,DQ) treatment in the amounts listed below.
CRL-5822 • CpG: • (x) (1 mg/mL stock)=(1 ug/mL) (2 mL) • x=2 ul • MKR.4: • (x) (5 mg/mL stock)=(2.5 ug/mL) (2 mL) • x=1 ul • Anti MHC Class II • Treat at 5 ug/mL • Stock is at 1 mg/mL • (x) (1 mg/mL)=(5 ug/mL) (2 mL) • x=10 ul/well
(§2) CpG was administered to activate the cells and induce CLIP expression. MKR.4 was added to select wells 24 hours after cell activation. The cells were incubated with MKR.4 for 2 hours. Then fresh media with or without Anti MHC Class II was added. 24 hours after Anti MHC Class II was added to the wells viability counts were performed.

CRL-5822 cells [2] = test: Effects of LPS, MKR.4 and anti-MHC class II antibody on CRL-5822 cell viability counts (Example 1); type: cell-based, human; details: LPS 1 ug/mL at start, MKR.4 2.5 ug/mL 24 h later for 2 h, Anti MHC Class II 5 ug/mL, viability counts 24 h after antibody
Experimental: Methods • The media was removed from a flask of CRL-5822 using a sterile glass pipet and vacuum and 1.5 mL of accutase was added to the flask and placed in incubator for 20 minutes • The cells were washed with 3 mL of PBS and transferred to a sterile 15 mL conical tube and centrifuged for 5 minutes @1000 rpm • The supernatant was removed with sterile glass pipet and vacuum and the pellet resuspended in 5 mL of PBS • A cell count was performed using the TC-10 automated counter • Loaded 10 ul of cell suspension+10 ul of trypan blue into disposable counting slide • Loaded slide into the TC-10 • Count • Live: 3.54*10^4 cells/mL*5 mL=177,000 cells total • 177,000/9 wells (8 wells in experiment+1 to maintain culture)=19,666 cells/well (flask). • The 5 mL of cell suspension was centrifuged for 5′ at 1000 rpm, the pellet was resuspended in 9 mL of 10% FBS RPMI • 1 mL of the cell suspension was added to a T-25 flask that had 4 mL of media in it and placed in the incubator. • After culture 1 mL of the cell suspension was added to each well (8 wells in a labeled 24 well plate) • A fresh vial of MKR.4 was resuspended in sterile DMSO • 7 mg of peptide was used to make a 5 mg/mL stock • 7 mg/mL=5 mg/mL=1.4 mL of DMSO • The peptide was added into 1.4 mL of DMSO, under the hood to maintain sterility • Once all of the peptide was dissolved, 200 ul aliquots were made […]

C57BL/6 splenocytes = test: Effects of CpG, MKR.4 and anti-MHC class II antibody on C57BL/6 splenocyte viability counts (Example 2); type: cell-based, mouse; details: CpG 5 ug/mL at start, MKR.4 5 ug/mL 24 h later for 2 h, Anti MHC Class II 5 ug/mL, viability counts 24 h after antibody
Experimental: C57BL/6 were Prepared as Follows: • A spleen from a C57BL/6 mouse was placed in a cell strainer in a petri dish with 6 mL of PBS • The spleen was mashed to produce a cell suspension • The PBS splenocyte cell suspension was transferred into a labeled 15 mL conical tube and centrifuged for 5 minutes at 1000 rpm • The pellet was resuspended in 1 mL of PBS • Geys was prepared to lyse the red blood cells • 7 mL of DI H20 • 0.5 mL of Geys B • 0.5 mL of Geys C • weighed out […] of NH4Cl • Mixed the […] of NH4Cl with 2 mL of Geys A • Transferred the dissolved solution to a 15 mL conical tube with the H20, Geys B, and Geys C • 3 mL of the Geys solution was added to the 1 mL of PBS cell suspension, mixed well and placed on ice for 1 minute (frequently inverted solution in tube on ice during the 1 minute) • The mixture was centrifuged for 5 minutes at 1000 rpm, washed with 5 mL of PBS, centrifuged for 5 minutes at 1000 rpm and resuspended in 10 mL of PBS • A hemacytometer count was performed: 99.0*10^6 cells total (9.9*10^6 cells/mL) plate 4*10^6 cells per well*8 wells=32 million; 32*10^6/9.9*10^6=3.23 mL of this suspension needed to obtain 32*10^6 cells • Centrifuged 3.23 mL of the suspension for 5 minutes at 1000 rpm and resuspended the pellet in 8 mL of 5% FBS RPMI • 1 mL of suspension was added to each well (12-well plate) • Added another 2 mL of 5% FBS RPMI to each well to bring the final volume up to 3 mL
as §1
C57BL/6 • CpG: • (x) (1 mg/mL stock)=(5 ug/mL) (3 mL) • x=15 ul • MKR.4: • (x) (5 mg/mL stock)=(5 ug/mL) (3 mL) • x=3 ul • Anti MHC Class II • Treat at 5 ug/mL • Stock is at 1 mg/mL • (x) (1 mg/mL)=(5 ug/mL) (3 mL) • x=15 ul/well
as §2

Substance	Total Dead (CRL-5822 cells [1])	Total Live (CRL-5822 cells [1])	Total Dead (CRL-5822 cells [2])	Total Live (CRL-5822 cells [2])	Total Dead (C57BL/6 splenocytes)	Total Live (C57BL/6 splenocytes)
ANS GFR IMA VLA SGG QY (ANSGFRIMAVLASGGQY) [MKR.4]	0.08*10^6	0.24*10^6	0.07*10^6	0.32*10^6	0.10*10^6	0.44*10^6
5′-tcgtcgttttgtcgttttgtcgtt-3′ [CpG, reference compound]	0.07*10^6	0.35*10^6			0.08*10^6	1.25*10^6
